The values that follow come from patent publication US20060205755A1, “Novel farnesyl protein transferase inhibitors as antitumor agents” (Schering Corporation, priority 2004, published 2006).

For orientation: pIC50 means −log10 of the IC50, conventionally taken in molar units. Read a high pIC50 as a small IC50.

pIC50: −log10 of the molar value. A value given as a limit tells only on which side of the number the result lay.

One assay deals with Human tumor cells. Put plainly: Soft Agar Assay (anchorage-independent growth, colony count). The conditions noted are these: colony outgrowth 10-16 days at 37° C. The class given is cell-based. The procedure:
Anchorage-independent growth is a characteristic of tumorigenic cell lines. Human tumor cells can be suspended in growth medium containing 0.3% agarose and an indicated concentration of a farnesyl transferase inhibitor. The solution can be overlayed onto growth medium solidified with 0.6% agarose containing the same concentration of farnesyl transferase inhibitor as the top layer. After the top layer is solidified, plates can be incubated for 10-16 days at 37° C. under 5% CO2 to allow colony outgrowth. After incubation, the colonies can be stained by overlaying the agar with a solution of MTT (3-[4,5-dimethyl-thiazol-2-yl]-2,5-diphenyltetrazolium bromide, Thiazolyl blue) (1 mg/mL in PBS). Colonies can be counted and the IC50's can be determined.

The target of assay [1] is purified human farnesyl protein transferase (Homo sapiens, UniProt P49354+P49356). As to the kind of experiment: FPT activity: transfer of [3H] farnesyl from [3H] farnesyl pyrophosphate to biotinylated H-ras peptide (SPA). The class given is biochemical. The conditions noted are these: 0.03 nM enzyme, 37° C., 60 minutes. The procedure:
FPT activity was determined by measuring the transfer of [^3H] farnesyl from [^3H] farnesyl pyrophosphate to a biotinylated peptide derived from the C-terminus of H-ras (biotin-CVLS). The reaction mixture contains: 50 mM Tris pH7.7, 5 mM MgCl2, 5 μM Zn^++, 5 mM DTT, 0.1% Triton-X, 0.05 μM peptide, 0.03 nM purified human farnesyl protein transferase, 0.180 μM [^3H] farnesyl pyrophosphate, plus the indicated concentration of tricyclic compound or vehicle control in a total volume of 100 μl. The reaction was incubated in a Vortemp shaking incubator at 37° C., 45 RPM for 60 minutes and stopped with 150 μl of 0.25 M EDTA containing 0.5% BSA and 1.3 mg/ml Streptavidin SPA beads. Radioactivity was measured in a Wallach 1450 Microbeta liquid scintillation counter. Percent inhibition was calculated relative to the vehicle control.

`Cn1cncc1C(NC(=O)OC1(C)CC1)C1=Cc2cccnc2C(C2CCN(C(=O)OC3(C)CC3)CC2)c2ccc(Cl)cc21` (single isomer, unassigned) [Example 4] gave a negative logarithm of the IC50 (pIC50) with Human tumor cells of at most 8.05.

In turn, `Cn1cncc1C(NC(=O)OC1(C)CC1)C1=Cc2cccnc2C(=C2CCN(C(=O)OC(C)(C)C)CC2)c2ccc(Cl)cc21` (centres unmarked) [Example 1] had a pIC50 in the assay with Human tumor cells of at most 8.05.

Turning to `Cn1cncc1C(NC(=O)OC1(C)CC1)C1=Cc2cccnc2C(=C2CCN(C(=O)OC3(C)CC3)CC2)c2ccc(Cl)cc21` (centres unmarked) [Example 2], the pIC50 in assay [1] was 9.05.

As to `Cn1cncc1C(NC(=O)OC1(C)CC1)C1=Cc2cccnc2C(O)(C2CCN(C(=O)OC(C)(C)C)CC2)c2ccc(Cl)cc21` (centres unmarked) [Example 5], the negative-log IC50 (pIC50) in the assay on Human tumor cells was at most 8.05.

`Cn1cncc1C(NC(=O)OC1(C)CC1)C1=Cc2cccnc2C(O)(C2CCN(C(=O)OC3(C)CC3)CC2)c2ccc(Cl)cc21` (centres unmarked) [Example 6]: in the assay on Human tumor cells, the pIC50 was at most 8.05.
